According to ChEMBL document CHEMBL5357036, “Latest developments in coumarin-based anticancer agents: mechanism of action and structure-activity relationship studies” (RSC Med Chem, 2024):
In brackets after ≈: the same amount, converted by molar mass.

Experiments:
[1] = system: MCF7; assay: Cytotoxicity against human MCF7 cells assessed as inhibition of cell growth measured after 24 hrs by MTT assay; format: functional, cell-based; conditions: MCF7, 24 h
[2] = system: MCF7; assay: Antiproliferative activity against human MCF7 cells assessed as reduction in cell viability measured after 24 hrs by MTT assay; format: functional, cell-based; conditions: MCF7, 24 h
[3] = system: HCT-116; assay: Cytotoxicity against human HCT-116 cells assessed as reduction in cell viability incubated for 96 hrs by MTT assay; format: functional, cell-based; conditions: HCT-116, 96 h
[4] = system: MDA-MB-231; assay: Antiproliferative activity against human MDA-MB-231 cells assessed as cell growth inhibition incubated for 96 hrs by MTT assay; format: functional, cell-based; conditions: MDA-MB-231, 96 h
[5] = system: HeLa; assay: Antiproliferative activity against human HeLa cells assessed as reduction in cell viability by MTT assay; format: functional, cell-based
[6] = system: SK-OV-3; assay: Antiproliferative activity against human SK-OV-3 cells assessed as reduction in cell viability by MTT assay; format: functional, cell-based
[7] = system: DU-145; assay: Antiproliferative activity against human DU-145 cells assessed as reduction in cell viability by MTT assay; format: functional, cell-based
[8] = system: MCF7; assay: Antiproliferative activity against human MCF7 cells assessed as reduction in cell viability by MTT assay; format: functional, cell-based
[9] = system: A549; assay: Antiproliferative activity against human A549 cells assessed as reduction in cell viability by MTT assay; format: functional, cell-based
[10] = system: HepG2; assay: Antiproliferative activity against human HepG2 cells assessed as reduction in cell viability by MTT assay; format: functional, cell-based
[11] = system: MCF7-DOX; assay: Antiproliferative activity against human MCF7-DOX cells assessed as reduction in cell viability by MTT assay; format: functional, cell-based
[12] = system: MCF7; assay: Antiproliferative activity against human MCF7 cells assessed as reduction in cell proliferation by CCK-8 assay; format: functional, cell-based
[13] = system: MCF7; assay: cells; conditions: Homo sapiens, MCF7, 24 h
Description: Cytotoxicity against human MCF7 cells assessed as reduction in cell viability incubated for 24 hrs by MTT assay

[14] = system: HeLa; assay: Anticancer activity against human HeLa cells assessed as cell growth inhibition; format: functional
[15] = system: MCF7; assay: Growth inhibition of human MCF7 cells incubated for 48 hrs by SRB assay; format: functional
[16] = system: T47D; assay: Anticancer activity against human T47D cells assessed as cell growth inhibition; format: functional, cell-based
[17] = system: K562; assay: Cytotoxicity against human K562 cells assessed as reduction in cell growth by MTT assay; format: functional, cell-based
[18] = system: MCF7; assay: cells; conditions: Homo sapiens, MCF7, 48 h
Description: Anticancer activity against human MCF7 cells assessed as inhibition of cell growth incubated for 48 hrs by SRB assay

[19] = system: SW480; assay: Cytotoxicity against human SW480 cells assessed as reduction in cell viability incubated for 48 hrs by MTT; format: functional, cell-based; conditions: SW480, 48 h
[20] = system: MCF7; assay: Cytotoxicity against human MCF7 cells assessed as cell growth inhibition incubated for 48 hrs by SRB assay; format: functional, cell-based; conditions: MCF7, 48 h
[21] = system: MDA-MB-231; assay: Antiproliferative activity against human MDA-MB-231 cells assessed as reduction in cell viability measured after 72 hrs under hypoxia condition by MTT assay; format: functional, cell-based; conditions: MDA-MB-231, 72 h
[22] = system: HT-29; assay: Cytotoxicity against human HT-29 cells assessed as reduction in cell viability incubated for 48 hrs by SRB assay; format: functional, cell-based; conditions: HT-29, 48 h
[23] = system: HCT-116; assay: Cytotoxicity against human HCT-116 cells assessed as reduction in cell viability incubated for 48 hrs by SRB assay; format: functional, cell-based; conditions: HCT-116, 48 h
[24] = system: MDA-MB-231; assay: Antiproliferative activity against human MDA-MB-231 cells assessed as reduction in cell viability measured after 72 hrs under normoxia condition by MTT assay; conditions: MDA-MB-231, 72 h

**Q.** How did the IC50 [1] turn out when COc1ccc(-c2cc(-c3cc4ccccc4oc3=O)nc(NC(C)=O)c2C#N)cc1 was run?
**A.** 1100 nM

**Q.** With Cc1cc(OCc2cn(C3C(=O)N(c4cccc(Cl)c4)C3/C=C\c3ccccc3)nn2)cc2oc(=O)cc(C)c12 (stereo not drawn) as the compound, how does the IC50 [2] read?
**A.** 58600 nM

**Q.** With Cc1ccc2c(OCn3cc(CCCO[C@H]4O[C@@H]5O[C@@]6(C)CC[C@H]7[C@H](C)CC[C@@H]([C@H]4C)[C@@]57OO6)nn3)cc(=O)oc2c1 as the compound, how does the IC50 [3] read?
**A.** 39 nM

**Q.** And the IC50 [4]?
**A.** 39 nM

**Q.** COc1ccc(-c2cc(-c3cc4ccccc4oc3=O)nc(N)c2C(N)=O)cc1 was tested. Which IC50 [1] did it give?
**A.** 1100 nM

**Q.** What does the source list for CO/N=C1\C(=O)N(CCOCCOCCOCCn2cc(COc3ccc4c(C)cc(=O)oc4c3)nn2)c2ccc(F)cc21?
**A.** IC50 [5]: 25500 nM; IC50 [6]: 35300 nM; IC50 [7]: 33400 nM; IC50 [8]: 29200 nM; IC50 [9]: 28700 nM; IC50 [10]: 26100 nM; IC50 [11]: 20100 nM

**Q.** For CCCCCCc1c(C)c2ccc(OS(N)(=O)=O)cc2oc1=O, which IC50 [12] is on record?
**A.** 8 nM

**Q.** For C/C(=N\Nc1nc(C)c(/N=N/c2ccc(C)cc2)s1)c1cc2cc(/N=N/c3ccccc3)ccc2oc1=O, which IC50 [13] is on record?
**A.** 11200 nM

**Q.** Which GI50 [14] does the source give for COc1ccc2oc(=O)cc(-c3nc4ccccc4n3S(=O)(=O)c3ccc(C)cc3)c2c1 here?
**A.** 35.3 µg/mL (≈ 79.1 µM)

**Q.** What does the source list for COc1cc(/C=C/C(=O)c2cc3ccccc3oc2=O)ccc1OCCN1CCCCC1?
**A.** GI50 [15]: 32.5 µg/mL (≈ 75 µM); IC50 [16]: 2320 nM

**Q.** For CNC(=O)c1cc(Oc2ccc(NC(=O)Nc3ccc(Cl)c(C(F)(F)F)c3)cc2)ccn1 [SORAFENIB], which IC50 [13] is on record?
**A.** 5100 nM

**Q.** What does the source list for Cc1ccc2oc(=O)cc(OCn3cc(CCCO[C@H]4O[C@@H]5O[C@@]6(C)CC[C@H]7[C@H](C)CC[C@@H]([C@H]4C)[C@@]57OO6)nn3)c2c1?
**A.** IC50 [3]: 39 nM; IC50 [4]: 39 nM

**Q.** How did the IC50 [17] turn out when Cc1c(Cc2ccc(NC(=O)Nc3ccc(Cl)c(F)c3)nc2)c(=O)oc2cc(O)c(C(C)(C)C)cc12 was run?
**A.** 1660 nM

**Q.** What does the source list for Cc1cc(C)c2c(OCn3cc(CCCO[C@H]4O[C@@H]5O[C@@]6(C)CC[C@H]7[C@H](C)CC[C@@H]([C@H]4C)[C@@]57OO6)nn3)cc(=O)oc2c1?
**A.** IC50 [3]: 39 nM; IC50 [4]: 39 nM

**Q.** With Cc1nc(N2N=C(c3cc4ccccc4oc3=O)CC2c2ccc(N(C)C)cc2)sc1/N=N/c1ccc(Cl)cc1 (stereo not drawn) as the compound, how does the IC50 [18] read?
**A.** 5410 nM

**Q.** Which IC50 [3] does the source give for C[C@H]1[C@@H](OCCCc2cn(COc3cc(=O)oc4ccccc34)nn2)O[C@@H]2O[C@@]3(C)CC[C@H]4[C@H](C)CC[C@@H]1[C@@]24OO3 here?
**A.** 39 nM

**Q.** And the IC50 [4]?
**A.** 39 nM

**Q.** For COc1cc(/C=C/c2ccc3ccc(=O)oc3c2)cc(OC)c1O, which IC50 [19] is on record?
**A.** 1010 nM

**Q.** Which IC50 [8] does the source give for Cc1ccc2c(c1)C(=O)C(=O)N2CCOCCn1cc(COc2ccc3c(C)cc(=O)oc3c2)nn1 here?
**A.** 28700 nM

**Q.** How did the IC50 [20] turn out when COc1cc(/C=C2/SC(=O)N(CCCOc3ccc4c(C)cc(=O)oc4c3)C2=O)cc(OC)c1O was run?
**A.** 12.1 µg/mL (≈ 24.4 µM)

**Q.** With CC1SC(N2N=C(c3cc4ccccc4oc3=O)CC2c2ccc(N(C)C)cc2)=NC1=O (stereo not drawn) as the compound, how does the IC50 [18] read?
**A.** 5410 nM

**Q.** With COC(=O)c1cccc(NC(=O)c2ccc(-n3cc(COc4cc(=O)oc5ccccc45)nn3)cc2)c1 as the compound, how does the IC50 [21] read?
**A.** 250 nM

**Q.** What does the source list for O=C(/C=C/c1ccc(OCCN2CCCCC2)cc1)c1cc2ccccc2oc1=O?
**A.** GI50 [15]: < 10 µg/mL; IC50 [16]: 2320 nM

**Q.** Cc1ccc(/N=N/c2sc(N3N=C(c4c(O)c5ccccc5oc4=O)CC3c3ccc(N(C)C)cc3)nc2-c2ccccc2)cc1 (stereo not drawn) was tested. Which IC50 [18] did it give?
**A.** 5410 nM

**Q.** For C/C(=N\Nc1nc(C)c(/N=N/c2ccc(Cl)cc2)s1)c1cc2cc(/N=N/c3ccccc3)ccc2oc1=O, which IC50 [13] is on record?
**A.** 10500 nM

**Q.** Which IC50 [22] does the source give for COc1ccccc1-c1csc(Nc2ccc3c(C)cc(=O)oc3c2)n1 here?
**A.** 250 nM

**Q.** And the IC50 [23]?
**A.** 250 nM

**Q.** For CCCc1cc(=O)oc2cc(Nc3nc(-c4ccc(Cl)cc4)cs3)ccc12, which IC50 [22] is on record?
**A.** 250 nM

**Q.** And the IC50 [23]?
**A.** 250 nM

**Q.** With Cc1c(Cc2ccc(NC(=O)Nc3ccc(F)c(F)c3)nc2)c(=O)oc2cc(O)c(C(C)(C)C)cc12 as the compound, how does the IC50 [17] read?
**A.** 1660 nM

**Q.** O=C(/C=C/c1ccc(N2CCOCC2)cc1)c1cc2ccccc2oc1=O was tested. Which IC50 [16] did it give?
**A.** 900 nM

**Q.** For O=c1cc(O)c2ccccc2o1 [4-HYDROXYCOUMARINS], which IC50 [21] is on record?
**A.** ≥ 100000 nM

**Q.** And the IC50 [24]?
**A.** ≥ 100000 nM
